{"source": "patent US9567303B2", "about": "“Crystal of 5-hydroxy-1H-imidazole-4-carboxamide hydrate and pharmaceutical composition thereof” (FUJIFILM Corporation, priority 2011, dated 2017)", "type_in_all_cases": "physicochemical", "key": {"[1]": {"assay": "Observation of the color of the crystals (Test Example 3)", "settings": "crystals as obtained; hydrate", "text": "Observation of the color of the crystals obtained in Examples 5 and 8 and Comparative Examples 4 and 5 was made."}, "[2]": {"assay": "Color difference of the crystal before and after storage, spectrophotometric colorimeter, reflection method (Test Examples 4 and 5)", "settings": "Table 6, stored 2 weeks, air atmosphere, 40° C., relative humidity 75%, double polyethylene bag", "description": "As described herein, the color difference of the crystal is measured by reflection method using a spectrocolorimeter.\nAbout 1 g of the test material was added in a storage bag, the storage bag being prepared by inserting one polyethylene bag into another polyethylene bag, each polyethylene bag having a thickness of 0.04 mm, each of the polyethylene bags was sealed, and the test material was stored for 2 weeks in conditions of air atmosphere at a temperature of 40° C. and a relative humidity of 75%. Color change of the crystal before and after the test was evaluated based on color difference.\n(§1) Measurement method: Reflection method"}, "[3]": {"assay": "Storage stability test under high temperature and high humidity conditions (Test Example 1)", "settings": "about 0.2 g in glass vial, one week, 60° C., relative humidity 75%; compared to Comparative Example 1", "description": "Storage stability test under high temperature and high humidity conditions\nAs a test material, the crystals obtained from Example 3 and Comparative Example 1 were selected.\nEach of the test material (about 0.2 g) was added to a glass vial and stored for one week under the conditions including temperature of 60° C. and relative humidity of 75%.\nState of the crystal of Example 3 before starting the test is illustrated in FIG. 4 and state of the crystal of Example 3 after finishing the test is illustrated in FIG. 5. Further, state of the crystal of Comparative Example 1 before starting the test is illustrated in FIG. 6 and state of the crystal of Comparative Example 1 after finishing the test is illustrated in FIG. 7."}, "[4]": {"assay": "Naked-eye observation of coloration after storage at 60° C. and 75% relative humidity", "settings": "stored 2 weeks, relative humidity 75%", "description": "Compound of Example 9 after it has been stored for 2 weeks under the condition including a temperature of 60° C. and a relative humidity of 75% is illustrated in FIG. 11."}, "[5]": {"assay": "Hue (H) in the Munsell color system of the crystals (Test Example 6)", "settings": "reflection method, crystals as obtained, hydrate", "text": "The Munsell color system is the color system developed by Albert H. Munsell. In the system, color is defined in terms of three attributions, hue, brightness and chroma. Hue (H) represents kinds of colors and, in the Munsell color system, hue is defined by using a total of 10 hues including 5 fundamental hues of red (R), yellow (Y), green (G), blue (B) and purple (P) and 5 intermediate hues of yellow-red (YR), yellow-green (YG), blue-green (BG), blue-purple (BP) and red-purple (RP). In addition, each hue of the 10 hues is further defined by using uniform color scales so that the maximum classification is 10. Hue (H) can be measured by using a measuring device such as a colorimeter or a color-difference meter.\nHue (H) in the Munsell color system of the crystals of Examples 9, 11 to 14 was observed.\nColorimeter: Spectrophotometric colorimeter SE 2000, manufactured by NIPPON DENSHOKU […] CO., LTD.\nas §1"}}}
{"smiles": "NC(=O)c1nc[nH]c1O", "note": "[Comparative Example 4, 5-hydroxy-1H-imidazole-4-carboxamide.3/4 hydrate]", "values": [{"measurement": "Color of crystals", "setting": "[1]", "value": "Blue"}]}
{"smiles": "NC(=O)c1nc[nH]c1O", "note": "[Comparative Example 5, 5-hydroxy-1H-imidazole-4-carboxamide.3/4 hydrate]", "values": [{"measurement": "Color of crystals", "setting": "[1]", "value": "Blue"}]}
{"smiles": "NC(=O)c1nc[nH]c1O", "note": "[Comparative Example 6, 5-hydroxy-1H-imidazole-4-carboxamide]", "values": [{"measurement": "Color difference (ΔE)", "setting": "[2]", "value": 25.6}]}
{"smiles": "NC(=O)c1nc[nH]c1O", "note": "[Comparative Example 7, 5-hydroxy-1H-imidazole-4-carboxamide.3/4 hydrate, reference compound]", "values": [{"measurement": "Color difference (ΔE)", "setting": "[2]; hydrate", "value": 8.8}]}
{"smiles": "NC(=O)c1nc[nH]c1O.O", "note": "[Example 3, 5-hydroxy-1H-imidazole-4-carboxamide hydrate]", "values": [{"measurement": "Coloration and storage stability of the crystal", "setting": "[3]", "value": "clearly less coloration and better storage stability"}]}
{"smiles": "NC(=O)c1nc[nH]c1O", "note": "[Example 5, 5-hydroxy-1H-imidazole-4-carboxamide.3/4 hydrate]", "values": [{"measurement": "Color of crystals", "setting": "[1]", "value": "Pale yellow"}]}
{"smiles": "NC(=O)c1nc[nH]c1O", "note": "[Example 9, 5-hydroxy-1H-imidazole-4-carboxamide.3/4 hydrate]", "values": [{"measurement": "Color difference (ΔE)", "setting": "[2]; hydrate", "value": 2.4}, {"measurement": "Coloration observed with a naked eye after storage", "setting": "[4]", "value": "no coloration with blue color"}, {"measurement": "Hue (H)", "setting": "[5]", "value": 3.1, "unit": "Y"}]}
{"smiles": "NC(=O)c1nc[nH]c1O", "note": "[Example 11, 5-hydroxy-1H-imidazole-4-carboxamide-3/4 hydrate]", "values": [{"measurement": "Hue (H)", "setting": "[5]", "value": 3.8, "unit": "Y"}]}
{"smiles": "NC(=O)c1nc[nH]c1O", "note": "[Example 12, 5-hydroxy-1H-imidazole-4-carboxamide.3/4 hydrate]", "values": [{"measurement": "Hue (H)", "setting": "[5]", "value": 4.4, "unit": "Y"}]}
{"smiles": "NC(=O)c1nc[nH]c1O", "note": "[Example 13, 5-hydroxy-1H-imidazole-4-carboxamide.3/4 hydrate]", "values": [{"measurement": "Color difference (ΔE)", "setting": "[2]; hydrate", "value": 5.1}, {"measurement": "Hue (H)", "setting": "[5]", "value": 5.9, "unit": "Y"}]}
{"smiles": "NC(=O)c1nc[nH]c1O", "note": "[Example 14, 5-hydroxy-1H-imidazole-4-carboxamide.3/4 hydrate]", "values": [{"measurement": "Hue (H)", "setting": "[5]", "value": 5.9, "unit": "Y"}]}
